The record followed here is US5922719A, “Coumarin dopamine D4 receptor antagonists” (priority 1997, dated 1999).

Experiment [1] addresses T1, human recombinant dopamine D4.2 receptor (Homo sapiens, UniProt P21917, DEL265-296).
T1 construct: expressed in transfected cells
T1 sequence (P21917 with tags, fused parts or gaps DEL265-296): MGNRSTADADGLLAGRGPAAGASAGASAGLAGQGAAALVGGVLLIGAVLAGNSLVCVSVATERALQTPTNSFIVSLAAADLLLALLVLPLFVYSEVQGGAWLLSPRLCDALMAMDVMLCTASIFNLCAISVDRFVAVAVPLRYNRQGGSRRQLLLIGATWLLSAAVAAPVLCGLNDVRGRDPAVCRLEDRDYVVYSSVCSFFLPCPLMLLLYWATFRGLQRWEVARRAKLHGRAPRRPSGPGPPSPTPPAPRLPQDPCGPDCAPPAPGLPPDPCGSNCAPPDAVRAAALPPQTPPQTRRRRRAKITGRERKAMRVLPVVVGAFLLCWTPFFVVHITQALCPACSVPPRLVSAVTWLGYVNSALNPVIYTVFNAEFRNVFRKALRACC
In words: [3H]spiperone receptor binding assay, D4.2 (CHO K1 membranes). The following applies: [3H]spiperone 0.2 nM, human D4.2, CHO K1 membranes, 60 minutes at 25° C. From the text:
(§1) A cell line expressing human dopamine D2 (Long form) receptors was purchased from Oregon Health Sciences University, Portland, Ore. The D2 receptor cDNA was subcloned into an expression vector, pRc/CMV. The plasmids were transfected by electroporation into CHO K1 cells. A single stable transfectant, resistant to the antibiotic G418, was isolated and selected for use in the binding studies. For D4 binding, CHO K1 cells stably transfected to express the human recombinant dopamine D4.2 receptor subtype, as described by Shih, et al., "The expression and functional characterization of human dopamine D4.2 receptor in CHO K1 cells," Soc.
(§2) Cells were grown until confluent, after which growth medium was removed and replaced with 0.02% ethylene diamine tetracetate (EDTA) in a phosphate-buffered saline solution (Sigma Chemical Co; St. Louis, Mo.) and scraped from the flasks. The cells were centrifuged at about 1000×g for 10 minutes at 40° C. and then resuspended in TEM buffer (25 mM Tris-HCL, pH 7.4, 5 mM EDTA, and 6 mM MgCl2) for D2 or the D4.2 buffer (50 mM Tris-HCl, pH 7.4, 5 mM EDTA, 1.5 mM CaCl2, 5 mM KCl, and 120 mM NaCl) and homogenized. The membranes were pelleted by centrifugation at 20,000×g at 40° C. for 20 minutes. Then the pellets were resuspended in an appropriate buffer at 1 mL/flask and stored at -70° C. until used in the receptor binding assay.
After 60 minutes incubation at 25° C., the incubations were terminated by rapid filtration through Whatmann GF/B glass fibre filters (soaked for 1 hour in 0.5% polyethylenimine) on a -cell harvester, with three washes of 1 mL ice-cold buffer. […] Nonspecific binding was defined in presence of 1 mM of haloperidol.
(§3) Saturation and competition binding data were analyzed using an iterative nonlinear least-square curve-fitting Ligand program. […] Experimental compounds were made up as stock solutions in dimethyl sulfoxide (DMSO). […] Each observation was carried out in triplicate. To allow these calculations, Kd values were measured for the interaction of various ligands with the receptor. […]

The target of experiment [2] is human dopamine D2 (Long form) receptor (Homo sapiens, UniProt P14416). In words: [3H]spiperone receptor binding assay, D2 (Long form) (CHO K1 membranes). The following applies: [3H]spiperone 0.2 nM, human D2 (Long form), CHO K1 membranes, 60 minutes at 25° C.; read-out: D2 Ki.
Text: as §1, with “Soc. Neurosci., 1995;21(Part 1):621.” for “Soc.”
as §2, with “CHO K1 cells expressing either human D2 and D4.2 receptors were grown in 162 cm^2 culture flasks in F12 medium (Gibco Laboratories, Grand Island, N.Y.) supplemented with 10% fetal bovine serum (FBS, Hyclone, Logan, UT) in an atmosphere of 5% Co2 /95% air at 37° C. Cells” for “Cells”
After 60 minutes incubation at 25° C., the incubations were terminated by rapid filtration through Whatmann GF/B glass fibre filters (soaked for 1 hour in 0.5% polyethylenimine) on a -cell harvester, with three washes of 1 mL ice-cold buffer. Individual filter disks containing the bound ligand were placed in counting vials with 4 mL of scintillation fluid (Ready Gel, Beckman Instrument Inc, Fullerton, Calif.) and then counted in a Beckman LS-6800 liquid scintillation counter at an efficiency of 45%. Nonspecific binding was defined in presence of 1 mM of haloperidol.
as §3

Where a name gives a salt, the structure may show the parent alone. Read-outs that look alike come from different tables or passages of the source.

Sequence of human dopamine D2 (Long form) receptor (P14416 whole entry): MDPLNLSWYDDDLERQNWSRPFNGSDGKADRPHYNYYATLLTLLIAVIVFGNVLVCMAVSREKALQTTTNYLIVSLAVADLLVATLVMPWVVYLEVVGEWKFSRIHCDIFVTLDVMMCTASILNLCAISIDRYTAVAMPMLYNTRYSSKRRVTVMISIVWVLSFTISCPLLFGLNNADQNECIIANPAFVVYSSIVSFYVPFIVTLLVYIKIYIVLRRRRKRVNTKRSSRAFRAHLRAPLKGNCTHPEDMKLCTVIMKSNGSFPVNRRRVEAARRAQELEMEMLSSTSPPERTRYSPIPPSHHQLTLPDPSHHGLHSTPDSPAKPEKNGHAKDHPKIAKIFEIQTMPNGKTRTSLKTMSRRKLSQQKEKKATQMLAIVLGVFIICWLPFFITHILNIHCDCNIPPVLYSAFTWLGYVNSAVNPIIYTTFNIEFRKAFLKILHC

As for `O=c1ccc2ccc(CN3CCN(c4cccc([N+](=O)[O-])c4)CC3)cc2o1` [Example 14, 7-[4-(3-Nitro-phenyl)-piperazin-1-ylmethyl]-chromen-2-one], the results for the Ki in experiment [1] (read-out: D4 Ki) and in experiment [2] were 26 nM and 5880 nM, respectively.

For the compound `O=c1ccc2ccc(CN3CCN(c4ccc(F)c(C(F)(F)F)c4)CC3)cc2o1` [Example 15, 7-[4-(4-Fluoro-3-trifluoromethyl-phenyl)-piperazin-1-ylmethyl]-chromen-2-one], the values for the Ki in experiment [1] (read-out: D4 Ki) and in experiment [2] were 27.3 nM and 7120 nM, respectively.

Take `Cc1cccc(N2CCN(Cc3ccc4ccc(=O)oc4c3)CC2)c1` [Example 17, 7-(4-m-Tolyl-piperazin-1-ylmethyl)-chromen-2-one]: the Ki in experiment [1] (D4 Ki) was determined as 32 nM; in experiment [2], 4400 nM.

Take `O=c1ccc2ccc(CN3CCN(c4ccccc4F)CC3)cc2o1` [Example 18, 7-[4-(2-Fluoro-phenyl)-piperazin-1-ylmethyl]-chromen-2-one]: the results for the Ki in experiment [1] (read-out: D4 Ki) and in experiment [2] were 33 nM and 1000 nM, respectively.

With `Cc1cccc(N2CCN(Cc3ccc4ccc(=O)oc4c3)CC2)c1Cl` [Example 20, 7-[4-(2-Chloro-3-methyl-phenyl)-piperazin-1-ylmethyl]-chromen-2-one], the Ki in experiment [1] (read-out: D4 Ki) worked out at 40 nM; in experiment [2], 5880 nM.

For the compound `O=c1ccc2ccc(CN3CCN(c4cccc(Cl)c4Cl)CC3)cc2o1` [Example 21, 7-[4-(2,3-Dichloro-phenyl)-piperazin-1-ylmethyl]-chromen-2-one], the Ki turned out to be 41.1 nM in experiment [1] (read-out: D4 Ki) and 1840 nM in experiment [2].

`O=c1ccc2ccc(CN3CCN(c4cccc(F)c4)CC3)cc2o1` [Example 22, 7-[4-(3-Fluoro-phenyl)-piperazin-1-ylmethyl]-chromen-2-one]: the Ki is 44 nM in experiment [1] (read-out: D4 Ki) and 4020 nM in experiment [2].

Turning to `O=c1ccc2ccc(CN3CCN(c4ccccn4)CC3)cc2o1` [Example 25, 2H-1-Benzopyran-2-one, 7-[[4-(2-pyridinyl)-1-piperazinyl]methyl]-, dihydrochloride], the figures for the Ki in experiment [1] (read-out: D4 Ki) and in experiment [2] were 68.2 nM and over 5880 nM, respectively.

For the compound `Cc1cccc(N2CCN(Cc3ccc4oc(=O)ccc4c3)CC2)c1C` [Example 35, 6-[4-(2,3-Dimethyl-phenyl)-piperazin-1-ylmethyl]-chromen-2-one], the results for the Ki in experiment [1] (read-out: D4 Ki) and in experiment [2] were 8.8 nM and 3250 nM, respectively.

For `Cc1ccc(N2CCN(Cc3ccc4oc(=O)ccc4c3)CC2)cc1` [Example 36, 6-(4-p-Tolyl-piperazin-1-ylmethyl)-chromen-2-one], the Ki in experiment [1] (D4 Ki) was 10.9 nM; in experiment [2], 5830 nM.

Take `O=c1ccc2cc(CN3CCN(c4ccc(CO)c(Br)c4)CC3)ccc2o1` [Example 37, 6-[4-(3-Bromo-4-hydroxymethyl-phenyl)-piperazin-1-ylmethyl]-chromen-2-one]: the figures for the Ki in experiment [1] (read-out: D4 Ki) and in experiment [2] were 12.6 nM and 2980 nM, respectively.

For `O=c1ccc2cc(CN3CCN(c4ccc(CO)c(Cl)c4)CC3)ccc2o1` [Example 38, 6-[4-(3-Chloro-4-hydroxymethyl-phenyl)-piperazin-1-ylmethyl]-chromen-2-one], the Ki in experiment [1] (read-out: D4 Ki) amounted to 13 nM; in experiment [2], 7290 nM.

`O=c1ccc2cc(CN3CCN(c4cccc(Cl)c4Cl)CC3)ccc2o1` [Example 39, 6-[4-(2,3-Dichloro-phenyl)-piperazin-1-ylmethyl]-chromen-2-one]: the Ki worked out at 15 nM in experiment [1] (read-out: D4 Ki) and 1200 nM in experiment [2].

For `O=c1ccc2cc(CN3CCN(c4ccc(CO)c(F)c4)CC3)ccc2o1` [Example 40, 6-[4-(3-Fluoro-4-hydroxymethyl-phenyl)-piperazin-1-ylmethyl]-chromen-2-one], the Ki in experiment [1] (read-out: D4 Ki) was 18 nM; in experiment [2], over 5880 nM.

For the compound `O=c1ccc2cc(CN3CCN(c4cccc(Cl)c4)CC3)ccc2o1` [Example 41, 6-[4-(3-Chloro-phenyl)-piperazin-1-ylmethyl]-chromen-2-one], the Ki in experiment [1] (read-out: D4 Ki) is 19.4 nM; in experiment [2] it was 3320 nM.

For the compound `O=c1ccc2cc(CN3CCN(c4ccccc4Cl)CC3)ccc2o1` [Example 43, 6-[4-(2-Chloro-phenyl)-piperazin-1-ylmethyl]-chromen-2-one], the Ki in experiment [1] (read-out: D4 Ki) amounted to 28 nM; in experiment [2], 218 nM.

As to `O=c1ccc2cc(CN3CCN(c4ccccn4)CC3)ccc2o1` [Example 44, 2H-1-Benzopyran-2-one, 6-[[4-(2-pyridinyl)-1-piperazinyl]methyl]-, dihydrochloride], the Ki was 29.7 nM in experiment [1] (read-out: D4 Ki) and 2170 nM in experiment [2].

In the case of `COc1cccc(N2CCN(Cc3ccc4oc(=O)ccc4c3)CC2)c1` [Example 47, 6-[4-(3-Methoxy-phenyl)-piperazin-1-ylmethyl]-chromen-2-one], the Ki was determined as 57 nM in experiment [1] (read-out: D4 Ki) and 7120 nM in experiment [2].
